# Measured values taken from patent US10995071B2, “Method for producing a polymorphic form of 3-[5-amino-4-(3-cyanobenzoyl)-pyrazol-1-yl]-N-cyclopropyl-4-methylbenzamide” (MEREO BIOPHARMA 1 LIMITED, priority 2016, dated 2021).
# What was measured:
# Assay type in all cases: physicochemical
# [1] = Variable temperature XRPD study
# Experimental: The sample was placed in Anton-Paar TTK 450 chamber at 25° C. The temperature was controlled in-situ through the measurement files: p2853-vt, LRP-1301-39-01.dql, LRP-1301-42-01.dql, LRP-1301-42-02.dql. The sample was heated from 25° C. to 200° C. at 1° C./min. XRPD data were collected from 30° C. to 200° C. every 10° C. Approximately 40 mg of the sample was placed in a Ni-coated sample holder under ambient conditions. The sample was loaded at 25° C.
# At 200° C., changes (shifts) in peak position in the high 2-theta region were observed. This may be attributed to the thermal expansion effect.
# [2] = Dissolution rate comparison of Form A and Form B in size 1 capsules (FIG. 8); details: 50 mg drug substance/capsule, milled to D50 1-10 μm, compared with Form A
# Excerpt: The products is milled to D50 1-10 μm.
# [3] = Thermodynamic stability of the polymorphic form
# [4] = Solubility profile of the polymorphic form
# [5] = Hygroscopicity of the polymorphic form; details: crystalline anhydrous form
smiles,measurement,setting,value
"Cc1ccc(C(=O)NC2CC2)cc1-n1ncc(C(=O)c2cccc(C#N)c2)c1N [Form A, 3-[5-amino-4-(3-cyanobenzoyl)-pyrazol-1-yl]-N-cyclopropyl-4-methylbenzamide]",temperature of conversion to Form B on heating,[1]; heated from 25° C. to 200° C. at 1° C./min,above 100 °C
"Cc1ccc(C(=O)NC2CC2)cc1-n1ncc(C(=O)c2cccc(C#N)c2)c1N [Form B, 3-[5-amino-4-(3-cyanobenzoyl)-pyrazol-1-yl]-N-cyclopropyl-4-methylbenzamide]",dissolution rate,[2],higher dissolution rate than Form A
same,thermodynamic stability,[3],thermodynamically stable
same,form by XRPD after heating to 200° C. and cooling to room temperature,[1]; cooled to room temperature (20° C.),remained unchanged
same,solubility profile,[4],favourable solubility profile
same,hygroscopicity,[5],non-hygroscopic
